Test systems include MALME-3M melanoma; COLO 205 colon; SF-268 CNS; MOLT-4 leukemia; SNB-19 CNS; HOP-92 NSCLC; NCI-H460 lung; SF-295 CNS; SF-539 CNS; CAKI-1 renal; LXFL 529 NSCLC; HOP-62 NSCLC; NCI-H23 lung; IGROV1 ovarian; TK-10 renal; K-562 leukemia.
What all share (assay): growth of human tumour cells (NCI), 48 h

Here are results for 9 compounds from PubChem BioAssay (NCI).

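Grown in 96-well plates, cells were treated for 48 hours with each compound at five concentrations. Insufficient inhibition: endpoint recorded as highest concentration tested. TGI: concentration producing complete growth inhibition.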

Take `CCc1cccc(C(C)CC)c1NC(=O)C(=O)C(CC(=O)Nc1ccc(Cl)c(Cl)c1)C(=O)OC` (stereo not drawn): the TGI in the assay on MALME-3M melanoma, in the assay with COLO 205 colon, in the assay on SF-268 CNS, in the assay on MOLT-4 leukemia, in the assay with SNB-19 CNS and in the assay with HOP-92 NSCLC was greater than 100 µM throughout. Also, the TGI with NCI-H460 lung, with SF-295 CNS, in the assay with SF-539 CNS, with CAKI-1 renal, with LXFL 529 NSCLC and with HOP-62 NSCLC was greater than 100 µM in each case. For the same compound, the TGI in the assay with NCI-H23 lung, in the assay with IGROV1 ovarian, in the assay on TK-10 renal and with K-562 leukemia was greater than 100 µM in each case.
On to `CCOC(=O)c1[nH]c(CN(C)Cc2[nH]c(C(=O)OCC)c(C)c2C(=O)OCc2ccccc2)c(C(=O)OCc2ccccc2)c1C`, for which the TGI is greater than 100 µM in the assay on MALME-3M melanoma; greater than 100 µM in the assay with COLO 205 colon; greater than 100 µM in the assay with SF-268 CNS; greater than 100 µM with MOLT-4 leukemia; 42.2 µM with SNB-19 CNS; 8.73 µM with HOP-92 NSCLC. The TGI was 62.2 µM in the assay on NCI-H460 lung; greater than 100 µM in the assay with SF-295 CNS; 21.3 µM in the assay with SF-539 CNS; 23.8 µM in the assay on CAKI-1 renal; greater than 100 µM in the assay on LXFL 529 NSCLC; 89.7 µM in the assay on HOP-62 NSCLC. Besides, the TGI in the assay on NCI-H23 lung is 42 µM; with IGROV1 ovarian, greater than 100 µM; in the assay on TK-10 renal it was 43.8 µM; in the assay with K-562 leukemia it was greater than 100 µM.
As for `CCCCCCCCCCCCn1[nH]c(C)c(C(=S)SCCCCCCCC)c1=O`, the TGI was greater than 100 µM with MALME-3M melanoma; greater than 100 µM with COLO 205 colon; greater than 100 µM with SF-268 CNS; greater than 77.2 µM in the assay on MOLT-4 leukemia; greater than 100 µM in the assay with SNB-19 CNS; greater than 100 µM with HOP-92 NSCLC. Further, the TGI in the assay with NCI-H460 lung, with SF-295 CNS, with SF-539 CNS, in the assay on CAKI-1 renal, in the assay with LXFL 529 NSCLC and with HOP-62 NSCLC was greater than 100 µM throughout. The TGI in the assay with NCI-H23 lung, in the assay with IGROV1 ovarian, with TK-10 renal and with K-562 leukemia was greater than 100 µM throughout.
`CC1C=C[C@H](Sc2ccccc2)CC[C@@]1(C)O` (stereo partly drawn): the TGI in the assay on MALME-3M melanoma, with COLO 205 colon, in the assay with MOLT-4 leukemia, in the assay with SNB-19 CNS, in the assay with HOP-92 NSCLC and with NCI-H460 lung was greater than 100 µM throughout. Further, the TGI in the assay on SF-539 CNS, in the assay on CAKI-1 renal, with LXFL 529 NSCLC, in the assay with HOP-62 NSCLC, with NCI-H23 lung and with IGROV1 ovarian was greater than 100 µM in each case. For the same compound, the TGI in the assay with TK-10 renal and with K-562 leukemia was greater than 100 µM each time.
For the compound `CCCCCCCCCCCC(O)=C1C(=O)CC(O)CC1=O` (stereo not drawn), the TGI in the assay on COLO 205 colon, in the assay on SF-268 CNS, in the assay on MOLT-4 leukemia, in the assay on SNB-19 CNS, with HOP-92 NSCLC and with NCI-H460 lung was greater than 100 µM in each case. Moreover, the TGI in the assay with SF-295 CNS, with SF-539 CNS, with CAKI-1 renal, with LXFL 529 NSCLC, in the assay with HOP-62 NSCLC and in the assay on NCI-H23 lung was greater than 100 µM in each case. Also, the TGI in the assay with IGROV1 ovarian, in the assay with TK-10 renal and in the assay with K-562 leukemia was greater than 100 µM throughout.
As for `CCC1(N=[N+]=[N-])C(=O)c2ccccc2N(c2ccccc2)C1=O` (stereo not drawn), the TGI in the assay with MALME-3M melanoma, with COLO 205 colon, with SF-268 CNS, in the assay on MOLT-4 leukemia, with SNB-19 CNS and in the assay with HOP-92 NSCLC was greater than 100 µM in each case. The TGI with NCI-H460 lung, with SF-295 CNS, in the assay with SF-539 CNS, in the assay on CAKI-1 renal, in the assay on LXFL 529 NSCLC and in the assay with HOP-62 NSCLC was greater than 100 µM throughout. Also, the TGI in the assay on NCI-H23 lung, in the assay on IGROV1 ovarian, in the assay with TK-10 renal and in the assay with K-562 leukemia was greater than 100 µM in each case.
Turning to `CCCCNC(=O)CCN(C(=O)O)S(=O)(=O)c1ccc(NC(=O)c2ccccc2)cc1`, the TGI in the assay on MALME-3M melanoma, in the assay on COLO 205 colon, in the assay with SF-268 CNS, in the assay on MOLT-4 leukemia, in the assay on SNB-19 CNS and in the assay on HOP-92 NSCLC was greater than 100 µM throughout. Besides, the TGI in the assay with NCI-H460 lung, with SF-295 CNS, with SF-539 CNS, in the assay on CAKI-1 renal, in the assay with LXFL 529 NSCLC and with HOP-62 NSCLC was greater than 100 µM each time. Also, the TGI with NCI-H23 lung, in the assay on IGROV1 ovarian, in the assay on TK-10 renal and with K-562 leukemia was greater than 100 µM each time.
In the case of `Brc1ccc2c(c1)C1C(CO2)C(c2ccccc2)=NN1c1ccccc1` (stereo not drawn), the TGI with MALME-3M melanoma, in the assay with COLO 205 colon, in the assay with SF-268 CNS, with MOLT-4 leukemia, in the assay on SNB-19 CNS and with HOP-92 NSCLC was greater than 100 µM each time. The TGI with NCI-H460 lung, in the assay with SF-295 CNS, with LXFL 529 NSCLC, in the assay with HOP-62 NSCLC, in the assay with NCI-H23 lung and with IGROV1 ovarian was greater than 100 µM throughout. In addition, the TGI in the assay on TK-10 renal and with K-562 leukemia was greater than 100 µM each time.
Take `COC(=O)NC(=O)c1cn(CCCOC(=O)CCCCCCCCC(=O)OCCCn2cc(C(=O)NC(=O)OC)c(=O)[nH]c2=O)c(=O)[nH]c1=O`: the TGI with MALME-3M melanoma is greater than 100 µM; in the assay with SF-268 CNS, greater than 100 µM; in the assay on MOLT-4 leukemia it was greater than 100 µM; with SNB-19 CNS, 76.5 µM; in the assay with HOP-92 NSCLC it was 95.2 µM; in the assay with NCI-H460 lung it was greater than 100 µM. Besides, the TGI in the assay with SF-295 CNS was greater than 100 µM; in the assay with SF-539 CNS, greater than 100 µM; in the assay with CAKI-1 renal, greater than 100 µM; with LXFL 529 NSCLC it was greater than 100 µM; with HOP-62 NSCLC, 78.5 µM; in the assay with NCI-H23 lung, greater than 100 µM. Further, the TGI in the assay with IGROV1 ovarian, with TK-10 renal and in the assay on K-562 leukemia was greater than 100 µM each time.
